From patent US8586369B2, “Ion channel-forming peptides” (The Regents of the University of California, priority 2007, dated 2013)
Several values for one entry are separate records, joined by “and”; a condition that tells them apart may be missing. Equal values may be shown once. Entries after “also recorded” stand apart in the source; their conditions may differ.

Experiments:
Alkaline Phosphatase = system: Alkaline Phosphatase
Procedure: Monitoring the enzymatic hydrolysis of glycolic acid-O-phosphate with Alkaline Phosphatase by NMR: Glycolic acid-O-phosphate (1.1 mg, 7.1 μmol) was added to a buffer containing 0.5 mL of 100 mM KCl, 140 mM Na2CO3 buffer in 0.5 mL of D2O at pD 9.4. […] (0.5 mg, 1 nmol) was added to the solution and ^31P-NMR spectra were taken at various time points to monitor the enzymatic hydrolysis of glycolic acid-O-phosphate to glycolic acid. ^31P-NMR (300 MHz, D2O): glycolic acid-O-phosphate: δ 3.33 ppm, free inorganic phosphate: 2.54 ppm using an internal 85% phosphoric acid standard (set to 0 ppm).

[1] = Single-channel conductance of homodimeric gA pores in planar lipid bilayers made from DiPhyPC (Example 1); format: biochemical; settings: for Single-channel conductance γ: HEPES pH 7.4, DiPhyPC bilayers, slope of I-V curves; for Single-channel conductance γ / γ at pH 7.4: homodimers; for γ at pH 7.4: DiPhyPC bilayers; for γ-ratio to gA-gA: pH 7.4, DiPhyPC
Procedure: Formation of planar lipid bilayers: We formed most planar lipid bilayers with the “folding technique.” We used a Teflon film (Eastern Scientific Inc, pore diameter 0.18-0.25 mm) was pretreated on each side with 2.5 μL of 5% hexadecane in pentane and air dried. This film was mounted using vacuum grease (Dow Corning, High vacuum grease) to a custom made Teflon chamber separating two buffer compartments each with a volume capacity of 4 mL. After adding 1 mL of electrolyte (0.01 M to 1.00 M KCl buffered with HEPES pH 7.4) to each compartment, lipids were spread from a solution in pentane onto the surface of the electrolyte solutions (specifically, 4-6 μL from 25 mg mL-l solution DiPhyPC or from 6.25 mg mL-l each of 50% DOPS and 50% POPE or from 25 mg mL-l DODAP mixed with 25 mg mL-l DiPhyPC in a 1:9 ratio. Three additional milliliters of electrolyte solution were added to each side of the chamber to raise the liquid levels above the aperture. We formed the bilayers from apposition of two monolayers of lipids using the method described by Montal et al. (Proc. Natl. Acad. Sci. U.S.A. 1972, 69, 3561-3566). Briefly, bilayers were obtained by consecutively raising the liquid level in each compartment until the pore was completely covered by electrolyte. If at this point the pore was not closed by a lipid bilayer, then the liquid level in one or both compartments was lowered below the pore level by aspirating electrolyte into a 3 mL syringe, followed by raising the electrolyte solution again.
Planar lipid bilayers were also made with the “painting technique”. We pretreated each side of a pore in a bilayer cup (Warner Instruments, Delrin perfusion cup, volume 1 mL, pore diameter 250 μm) with ˜2 μL of a 25 mg mL-l solution of DiPhyPC in hexane. After adding recording buffer (0.01 M KCl to 1.00 M KCl buffered with HEPES, pH=7.4) to both compartments of the bilayer setup, we “painted” a solution of 20 mg mL-l DiPhyPC in n-decane over the pore by using a paint brush with a fine tip. We followed the thinning of the decane droplet to form a planar bilayer by monitoring the capacitance of the bilayer. After verifying that bilayers were stable for several minutes (in the range of ±200 mV applied voltage) and that the capacitances were above 80-90 pF, gA was added (4-8 μL from 1 ng mL-l in ethanol), derivatives 1 or 2 (2-10 μL from 100 ng mL-l in ethanol), or derivative 3 (4-10 μL from 100 ng mL-l in ethanol) directly to the bilayer chambers.
Ion channel measurements: We performed single channel recordings in “voltage clamp mode” using Ag/AgCl electrodes (Warner Instruments) in each compartment of the bilayer chambers. Data acquisition and storage was carried out using custom software in combination with either an EPC-7 patch clamp amplifier from List Medical Electronic (set at a gain of 100 mV pA-1 and a filter cutoff frequency of 3 kHz) or a Geneclamp 500 amplifier from Axon Instruments (with a CV-5B 100GU headstage, set at a gain of 100 mV pA-1 and filter cutoff frequency of 1 kHz). We used the EPC-7 amplifier for most folded bilayers and the Geneclamp 500 amplifier for most painted bilayers. The data acquisition boards for both amplifiers were set to a sampling frequency of 15 kHz. All current traces shown in the figures were further filtered using a digital Gaussian low-pass filter with a cutoff frequency of 30 Hz. The current traces we used to generate all data that was recorded at applied potentials s 50 mV were filtered at 10 Hz.
We performed the analysis of the single channel current traces by computing histograms of the currents from the original current-time traces with ClampFit 9.2 software from Axon Instruments. From these histograms we extracted the main current values by fitting a Gaussian function to the peaks in the histograms. […] Single channel conductances reported in this paper always refer to the main conductance state (i.e. to the dominant peaks in the current histograms).

[2] = Single-channel conductance in negatively charged planar bilayers (50% POPE, 50% DOPS); format: biochemical; settings: 0.01 M KCl
Text: The data acquisition boards for both amplifiers were set to a sampling frequency of 15 kHz.

[3] = Single-channel conductance of homodimeric gA pores in planar lipid bilayers made from DiPhyPC (Example 1); format: biochemical; settings: 20 mM KCl plus 10 mM KOH; for γ at pH 12: DiPhyPC bilayers, homodimers
[4] = molecular target: bovine carbonic anhydrase II (CA, EC 4.2.1.1) (Bos taurus, UniProt P00921); experiment: Detection of protein-ligand binding interactions using ion channel measurements; settings: 12 pM structure 11, 50 μM CA, 140 mM KCl, 10 mM phosphate pH 8.0, 100 mV
bovine carbonic anhydrase II (CA, EC 4.2.1.1), sequence (P00921 whole entry): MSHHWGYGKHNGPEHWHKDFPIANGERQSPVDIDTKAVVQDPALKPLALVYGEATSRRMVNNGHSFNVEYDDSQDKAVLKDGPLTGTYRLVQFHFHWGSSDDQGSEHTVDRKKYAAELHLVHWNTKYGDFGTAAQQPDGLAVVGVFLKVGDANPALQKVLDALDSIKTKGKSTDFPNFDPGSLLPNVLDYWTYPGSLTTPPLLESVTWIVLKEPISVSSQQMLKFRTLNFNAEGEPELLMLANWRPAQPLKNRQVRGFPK
Procedure: Benzenesulfonamides are well-known ligands for carbonic anhydrase II (CA, EC 4.2.1.1), a Zn^2+-containing protein.
Detection of protein-ligand binding interactions using ion channel measurements: About 1 μL (from a 100 ng mL^−1 solution in ethanol) of structure 11 (to afford a final concentration of 12 pM of structure 11) was added to each compartment of a bilayer setup containing as electrolyte 140 mM KCl and 10 mM phosphate buffer (pH 8.0). The conductance was recorded at 100 mV.

[5] = Single channel recordings of gA derivatives in planar lipid bilayers (Example 2); format: biochemical; settings: applied potential 100 mV, 20 mM KCl, 0.2 mM HEPES pH 7.4
Procedure: Formation of Planar Lipid Bilayers: Planar lipid bilayers were formed by the “folding technique.” Briefly, a film (e.g., Teflon®, Eastern Scientific Inc, pore diameter 0.1-0.2 mm) that was pretreated on both sides of the pore with 2 μL of 5% (v/v) hexadecane in pentane. This film was mounted using vacuum grease (Dow Corning, High vacuum grease) to a custom-made Teflon chamber separating two buffer compartments each with a volume capacity of 4 mL. After addition of 1 mL of electrolyte (20 mM KCl buffered with 0.2 mM HEPES pH 7.4 or 140 mM KCl buffered with 10 mM phosphate pH 8.0) to each compartment, lipids were spread at the air-water interface of the electrolyte solution in both compartments. Three additional milliliters of the same electrolyte solution were added to each compartment to raise the liquid level above the aperture in the Teflon film. The bilayers were formed on the pore of the Teflon film by aspirating the electrolyte solution into a 3 mL syringe, followed by dispensing the electrolyte solution back into each compartment.
Ion Channel Measurements: Single channel recordings in “voltage clamp mode” were performed using Ag/AgCl pellet electrodes (Warner Instruments) in each compartment of the bilayer setup. Data acquisition and storage was carried out using custom software in combination with an EPC-7 patch clamp amplifier from Heka (set at a gain of 10 mV pA^−1 and a filter cutoff frequency of 3 kHz). The data acquisition board for the amplifier was set to a sampling frequency of 15 kHz. All current traces shown in the figures were further filtered using a digital Gaussian low-pass filter with a cutoff frequency of 4 Hz.
The analysis of single channel current traces was performed by computing histograms of the currents from the original current versus time traces with ClampFit 9.2 software from Axon Instruments. From these histograms, main current values were extracted by fitting a Gaussian function to the peaks in the histograms. […]

## O=C(O)COP(=O)(O)O [glycolic acid-O-phosphate]
Alkaline Phosphatase; 7.1 μmol substrate, 1 nmol enzyme, 100 mM KCl, 140 mM Na2CO3, pD 9.4
  time after which the enzymatic hydrolysis was completed: 50 min
Alkaline Phosphatase; 31P-NMR spectroscopy
  hydrolysis by AP: hydrolyzed by AP

## Gramicidin A [gA, reference compound]
[1]; 0.01 M KCl
  Single-channel conductance γ: 2.7 ± 0.5 pS
[1]; 20 mM KCl
  γ at pH 7.4: 4.5 ± 0.1 pS
[1]; 0.10 M KCl
  Single-channel conductance γ: 10.3 ± 0.1 pS
[1]; 1.00 M KCl, listed as gA-gA
  Single-channel conductance γ: 20 pS and 20.0 ± 0.2 pS
[2]; 0.1 mM HEPES pH 7.4, listed as gA-gA
  Single-channel conductance γ in negatively charged bilayers: 26.9±0.2 pS and 27 pS
[3]
  γ at pH 12: 7.8 ± 0.2 pS

## gA-triazole-benzenesulfonamide [structure 11]
[4]
  effect of CA on ion channel activity: suppression of ion channel activity; also recorded: reduction of ion channel activity
[4]; listed as gA-sulfonamide 11
  effect of CA on ion channel activity: reduces the observed transmembrane ion flux

## gramicidamine
[1]; 20 mM KCl, DiPhyPC
  conductance compared with gA-gA at pH 7.4: significantly less
[1]; 20 mM KCl
  γ at pH 7.4: 3.8 ± 0.2 pS
[5]
  ion channel activity in planar lipid bilayers: retained well-defined ion channel activity
[3]; DiPhyPC
  conductance compared with gA-gA at pH 12: indistinguishable
[3]
  γ at pH 12: 7.7 ± 0.9 pS

## gramicidyl taurinyl succinate [compound 1]
[1]; 0.01 M KCl
  Single-channel conductance γ: 3.5 ± 0.3 pS
  γ-ratio to gA-gA: about 1.3
[1]; 0.01 M KCl, listed as 1-1
  γ-ratio to gA-gA: 1.3
[1]; 0.10 M KCl
  Single-channel conductance γ: 11.0 ± 0.4 pS
  γ-ratio to gA-gA: 1.1
[1]; 1.00 M KCl
  Single-channel conductance γ: 19.5 ± 0.4 pS
  γ-ratio to gA-gA: 1.0
[1]; approximately 0.10 M KCl
  difference in single channel conductance compared to gA: 7%
[1]; approximately 1.00 M KCl
  difference in single channel conductance compared to gA: 3%
[2]; 0.1 mM HEPES pH 7.4
  Single-channel conductance γ in negatively charged bilayers: 26.8±0.9 pS
